Data published in patent publication US11066414B2, “Cot modulators and methods of use thereof” (Gilead Sciences, Inc., priority 2015, dated 2021).

Tests used:
TNFα = assay: Cot Monocyte TNFα Cell Based Assay; conditions: Homo sapiens, Monocyte, read-out: EC50 TNF, LPS-stimulated human monocytes, TNFα
Human Cot = Human Cot (Homo sapiens (Human), UniProt P41279); assay: High Throughput Cot Biochemical Assay; conditions: IC50 HTRF, Cot HTRF (TR-FRET) biochemical assay
Sequence of Human Cot (P41279 30-397): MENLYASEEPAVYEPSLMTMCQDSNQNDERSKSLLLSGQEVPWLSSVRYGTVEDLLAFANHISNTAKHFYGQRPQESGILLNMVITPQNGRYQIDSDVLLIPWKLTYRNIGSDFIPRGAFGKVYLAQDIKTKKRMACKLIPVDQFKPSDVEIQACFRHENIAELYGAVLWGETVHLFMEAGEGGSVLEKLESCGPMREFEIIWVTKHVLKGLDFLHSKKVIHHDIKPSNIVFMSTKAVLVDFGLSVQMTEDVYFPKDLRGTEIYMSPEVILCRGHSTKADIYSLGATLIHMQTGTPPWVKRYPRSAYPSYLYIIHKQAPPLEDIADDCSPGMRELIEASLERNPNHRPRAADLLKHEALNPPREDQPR

EC50 (TNFα) [nM]	IC50 (Human Cot) [nM]	SMILES
78	4	CC(C)(C)CNc1c(C#N)cnc2c(C#N)cc(N[C@H](c3cn(C4(C(F)(F)F)CC4)nn3)c3cccc4[nH]ncc34)cc12 [Example 472, (S)-6-(((1H-indazol-4-yl)(1-(1-(trifluoro-methyl)cyclopropyl)-1H-1,2,3-triazol-4-yl)methyl)amino)-4-(neopentylamino)-quinoline-3,8-dicarbonitrile]
26	2	Cc1nc(F)ccc1[C@H](Nc1cc(C#N)c2ncc(C#N)c(NCC(C)(C)C)c2c1)c1cn(C2(C(F)F)CC2)nn1 [Example 473, (S)-6-(((1-(1-(difluoromethyl)cyclopropyl)-1H-1,2,3-triazol-4-yl)(6-fluoro-2-methylpyridin-3-yl)methyl)amino)-4-(neopentylamino)quinoline-3,8-dicarbonitrile]
26	2	CC1(C)COCC[C@H]1Nc1c(C#N)cnc2c(C#N)cc(N[C@H](c3cn(C4(C(F)(F)F)CC4)nn3)c3cccc4ncsc34)cc12 [Example 474, 6-(((S)-benzo[d]thiazol-7-yl(1-(1-(trifluoromethyl)cyclopropyl)-1H-1,2,3-triazol-4-yl)methyl)amino)-4-(((R)-3,3-dimethyltetrahydro-2H-pyran-4-yl)amino)quinoline-3,8-dicarbonitrile]
258	20	CC1(C)COCC[C@@H]1Nc1c(C#N)cnc2c(C#N)cc(N[C@H](c3cn(C4(C(F)(F)F)CC4)nn3)c3cccc4ncsc34)cc12 [Example 475, 6-(((S)-benzo[d]thiazol-7-yl(1-(1-(trifluoromethyl)cyclopropyl)-1H-1,2,3-triazol-4-yl)methyl)amino)-4-(((S)-3,3-dimethyltetrahydro-2H-pyran-4-yl)amino)quinoline-3,8-dicarbonitrile]
185	2	Cc1nc(F)ccc1[C@H](Nc1cc(Cl)c2ncc(C#N)c(NCC(C)(C)C)c2c1)c1cn(C2(C(N)=O)CC2)nn1 [Example 477, (S)-1-(4-(((8-chloro-3-cyano-4-(neopentylamino)quinolin-6-yl)amino)(6-fluoro-2-methylpyridin-3-yl)methyl)-1H-1,2,3-triazol-1-yl)cyclopropane-1-carboxamide]
78	5	Cc1nc(F)ccc1[C@H](Nc1cc(Cl)c2ncc(C#N)c(NCC(C)(C)C)c2c1)c1cn(C2(C#N)CCC2)nn1 [Example 479, (S)-8-chloro-6-(((1-(1-cyanocyclobutyl)-1H-1,2,3-triazol-4-yl)(6-fluoro-2-methylpyridin-3-yl)methyl)amino)-4-(neopentylamino)quinoline-3-carbonitrile]
60	2	Cc1nc(F)ccc1[C@H](Nc1cc(Cl)c2ncc(C#N)c(NCC(C)(C)C)c2c1)c1cn(C2(C)CC2)nn1 [Example 480, (S)-8-chloro-6-(((6-fluoro-2-methylpyridin-3-yl)(1-(1-methylcyclopropyl)-1H-1,2,3-triazol-4-yl)methyl)amino)-4-(neopentylamino)-quinoline-3-carbonitrile]
391	6	CC(C)(C)CNc1c(C#N)cnc2c(F)cc(N[C@H](c3cn(C4(C(N)=O)CCC4)nn3)c3cccc4ncsc34)cc12 [Example 481, (S)-1-(4-(benzo[d]thiazol-7-yl((3-cyano-8-fluoro-4-(neopentylamino)quinolin-6-yl)-amino)methyl)-1H-1,2,3-triazol-1-yl)cyclobutane-1-carboxamide]
86	3	Cc1nc(F)ccc1[C@H](Nc1cc(Cl)c2ncc(C#N)c(NCC(C)(C)C)c2c1)c1cn(C2(CO)CC2)nn1 [Example 482, (S)-8-chloro-6-(((6-fluoro-2-methylpyridin-3-yl)(1-(1-(hydroxymethyl)cyclopropyl)-1H-1,2,3-triazol-4-yl)methyl)amino)-4-(neopentylamino)quinoline-3-carbonitrile]
108	7	Cn1cnc2cccc([C@H](Nc3cc(Cl)c4ncc(C#N)c(NCC(C)(C)C)c4c3)c3cn(C4(C(F)(F)F)CC4)nn3)c21 [Example 483, (S)-8-chloro-6-(((1-methyl-1H-benzo[d]imidazol-7-yl)(1-(1-(trifluoromethyl)cyclopropyl)-1H-1,2,3-triazol-4-yl)methyl)amino)-4-(neopentylamino)quinoline-3-carbonitrile]
73	3	Cn1cnc2cccc([C@H](Nc3cc(C#N)c4ncc(C#N)c(NCC(C)(C)C)c4c3)c3cn(C4(C(F)(F)F)CC4)nn3)c21 [Example 484, (S)-6-(((1-methyl-1H-benzo[d]imidazol-7-yl)(1-(1-(trifluoromethyl)cyclopropyl)-1H-1,2,3-triazol-4-yl)methyl)amino)-4-(neopentylamino)quinoline-3,8-dicarbonitrile]
991	3	Cc1nc(F)ccc1[C@H](Nc1cc(F)c2ncc(C#N)c(NCC(C)(C)C)c2c1)c1cn(C2(C(N)=O)CC2)nn1 [Example 486, (S)-1-(4-(((3-cyano-8-fluoro-4-(neopentyl-amino)quinolin-6-yl)amino)(6-fluoro-2-methylpyridin-3-yl)methyl)-1H-1,2,3-triazol-1-yl)cyclopropane-1-carboxamide]
245	1	Cc1nc(F)ccc1[C@H](Nc1cc(F)c2ncc(C#N)c(NCC(C)(C)C)c2c1)c1cn(C2(C(N)=O)CCC2)nn1 [Example 487, (S)-1-(4-(((3-cyano-8-fluoro-4-(neopentyl-amino)quinolin-6-yl)amino)(6-fluoro-2-methylpyridin-3-yl)methyl)-1H-1,2,3-triazol-1-yl)cyclobutane-1-carboxamide]
79	3	Cc1nc(F)ccc1[C@H](Nc1cc(F)c2ncc(C#N)c(NCC(C)(C)C)c2c1)c1cn(C2(C)CC2)nn1 [Example 488, (S)-8-fluoro-6-(((6-fluoro-2-methylpyridin-3-yl)(1-(1-methylcyclopropyl)-1H-1,2,3-triazol-4-yl)methyl)amino)-4-(neopentyl-amino)quinoline-3-carbonitrile]
129	2	Cc1nc(F)ccc1[C@H](Nc1cc(C#N)c2ncc(C#N)c(NCC(C)(C)C)c2c1)c1cn(C2(C#N)CC2)nn1 [Example 489, (S)-6-(((1-(1-cyanocyclopropyl)-1H-1,2,3-triazol-4-yl)(6-fluoro-2-methylpyridin-3-yl)methyl)amino)-4-(neopentylamino)-quinoline-3,8-dicarbonitrile]
1000	1	Cc1nc(F)ccc1[C@H](Nc1cc(C#N)c2ncc(C#N)c(NCC(C)(C)C)c2c1)c1cn(C2(C(N)=O)CC2)nn1 [Example 490, (S)-1-(4-(((3,8-dicyano-4-(neopentylamino)-quinolin-6-yl)amino)(6-fluoro-2-methylpyridin-3-yl)methyl)-1H-1,2,3-triazol-1-yl)cyclopropane-1-carboxamide]
40	3	Cc1nc(F)ccc1[C@H](Nc1cc(C#N)c2ncc(C#N)c(NCC(C)(C)C)c2c1)c1cn(C2(C#N)CCC2)nn1 [Example 491, (S)-6-(((1-(1-cyanocyclobutyl)-1H-1,2,3-triazol-4-yl)(6-fluoro-2-methylpyridin-3-yl)methyl)amino)-4-(neopentylamino)-quinoline-3,8-dicarbonitrile]
21	2	Cc1nc(F)ccc1[C@H](Nc1cc(C#N)c2ncc(C#N)c(NCC(C)(C)C)c2c1)c1cn(C2(C)CC2)nn1 [Example 492, (S)-6-(((6-fluoro-2-methylpyridin-3-yl)(1-(1-methylcyclopropyl)-1H-1,2,3-triazol-4-yl)methyl)amino)-4-(neopentylamino)-quinoline-3,8-dicarbonitrile]
1000	31	CC(C)(C)CNc1c(C#N)cnc2c(Cl)cc(N[C@H](c3cn(C4(C(F)(F)F)CC4)nn3)c3cnn4ncccc34)cc12 [Example 493, (S)-8-chloro-4-(neopentylamino)-6-((pyrazolo[1,5-b]pyridazin-3-yl(1-(1-(trifluoromethyl)cyclopropyl)-1H-1,2,3-triazol-4-yl)methyl)amino)quinoline-3-carbonitrile]
444	1	Cc1nc(F)ccc1[C@H](Nc1cc(C#N)c2ncc(C#N)c(NCC(C)(C)C)c2c1)c1cn(C2(C(N)=O)CCC2)nn1 [Example 494, (S)-1-(4-(((3,8-dicyano-4-(neopentyl-amino)quinolin-6-yl)amino)(6-fluoro-2-methylpyridin-3-yl)methyl)-1H-1,2,3-triazol-1-yl)cyclobutane-1-carboxamide]
50	3	Cc1nc(F)ccc1[C@H](Nc1cc(Cl)c2ncc(C#N)c(NCC(C)(C)C)c2c1)c1cn(C2(CF)CC2)nn1 [Example 495, (S)-8-chloro-6-(((6-fluoro-2-methylpyridin-3-yl)(1-(1-(fluoromethyl)cyclopropyl)-1H-1,2,3-triazol-4-yl)methyl)amino)-4-(neopentylamino)quinoline-3-carbonitrile]
467	6	Cn1ncc2c([C@H](Nc3cc(Cl)c4ncc(C#N)c(NCC(C)(C)C)c4c3)c3cn(C4(C(F)F)CC4)nn3)cccc21 [Example 496, (S)-8-chloro-6-(((1-(1-(difluoromethyl)-cyclopropyl)-1H-1,2,3-triazol-4-yl)(1-methyl-1H-indazol-4-yl)methyl)amino)-4-(neopentylamino)quinoline-3-carbonitrile]
379	6	Cn1cc2c([C@H](Nc3cc(Cl)c4ncc(C#N)c(NCC(C)(C)C)c4c3)c3cn(C4(C(F)F)CC4)nn3)cccc2n1 [Example 497, (S)-8-chloro-6-(((1-(1-(difluoromethyl)-cyclopropyl)-1H-1,2,3-triazol-4-yl)(2-methyl-2H-indazol-4-yl)methyl)amino)-4-(neopentylamino)quinoline-3-carbonitrile]
